Experimental data from patent publication US10266526B2, “Substituted 1,2,3-triazoles as SMYD inhibitors for treating cancer” (EPIZYME, INC., priority 2014, dated 2019).

target: SMYD2 (Homo sapiens (Human), UniProt Q9NRG4); experiment: SMYD2 biochemical assay (SMYD2 enzyme assay on peptide substrate, 3H-SAM Flashplate); details: read-out: SMYD2 Biochem IC50; IC50 values are an average of n = 1 to n = 50
Sequence (Q9NRG4 whole entry): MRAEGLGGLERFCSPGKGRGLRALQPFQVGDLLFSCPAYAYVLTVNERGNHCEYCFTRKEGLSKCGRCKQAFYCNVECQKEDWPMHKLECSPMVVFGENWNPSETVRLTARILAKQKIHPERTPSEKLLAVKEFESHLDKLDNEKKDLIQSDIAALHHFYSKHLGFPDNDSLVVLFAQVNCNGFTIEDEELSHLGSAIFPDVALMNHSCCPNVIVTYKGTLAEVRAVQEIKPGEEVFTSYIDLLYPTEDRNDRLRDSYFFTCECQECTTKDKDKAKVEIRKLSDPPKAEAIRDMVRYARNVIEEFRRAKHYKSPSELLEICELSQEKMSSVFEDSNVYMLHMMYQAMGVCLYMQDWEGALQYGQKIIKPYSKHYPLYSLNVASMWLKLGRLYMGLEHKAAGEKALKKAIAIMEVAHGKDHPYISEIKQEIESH
From the text: S-adenosylmethionine (SAM), S-adenosylhomocysteine (SAH), bicine, Tween20, dimethylsulfoxide (DMSO), bovine skin gelatin (BSG), and Tris(2-carboxyethyl)phosphine hydrochloride (TCEP) were purchased from Sigma-Aldrich at the highest level of purity possible. ^3H-SAM was purchase from American Radiolabeled Chemicals with a specific activity of 80 Ci/mmol. 384-well streptavidin Flashplates were purchased from PerkinElmer.
The sequence was [sequence](K-Biot)-amide.
Production of Recombinant SMYD2 Enzymes for Biochemical Enzyme Activity Assays
Full length SMYD2 (NP_064582.2) was cloned into a pFastbac-Htb-lic vector with an N-terminal His6 tag and FLAG tag, preceded by a TEV protease cleavage site. The protein was expressed in Sf9 insect cells. Cells were resuspended in lysis buffer (25 mM HEPES-NaOH, pH 7.5, 200 mM NaCl, 5% glycerol, and 5 mM (3-ME) and lysed by sonication. The protein was purified by Ni-NTA (Qiagen), followed by TEV cleavage to remove the His6 tag, subtractive Ni-NTA (Qiagen), and gel filtration chromatography using an S200 column (GE Healthcare). Purified protein was stored in 20 mM Tris-HCl, pH 8.0, 100 mM NaCl, and 1 mM TCEP.
General Procedure for SMYD2 Enzyme Assays on Peptide Substrates
The assays were all performed in a buffer consisting of 20 mM Bicine (pH=7.6), 1 mM TCEP, 0.005% Bovine Skin Gelatin, and 0.002% Tween20, prepared on the day of use. […] DMSO (1 ul) was added to Columns 11, 12, 23, 24, rows A-H for the maximum signal control and 1 ul of SAH, a known product and inhibitor of SMYD2, was added to columns 11, 12, 23, 24, rows I-P for the minimum signal control. A cocktail (40 ul) containing the SMYD2 enzyme was added by Multidrop Combi (Thermo-Fisher). The compounds were allowed to incubate with SMYD2 for 30 min at room temperature, then a cocktail (10 ul) containing ^3H-SAM and peptide was added to initiate the reaction (final volume=51 ul). […] The assays were stopped by the addition of non-radioactive SAM (10 ul) to a final concentration of 600 uM, which dilutes the ^3H-SAM to a level where its incorporation into the peptide substrate is no longer detectable. 50 ul of the reaction in the 384-well polypropylene plate was then transferred to a 384-well Flashplate and the biotinylated peptides were allowed to bind to the streptavidin surface for at least 1 hour before being washed three times with 0.1% Tween20 in a Biotek ELx405 plate washer. The plates were then read in a PerkinElmer TopCount plate reader to measure the quantity of ^3H-labeled peptide bound to the Flashplate surface, measured as disintegrations per minute (dpm) or alternatively, referred to as counts per minute (cpm).
Where dpm=disintegrations per minute, cmpd=signal in assay well, and min and max are the respective minimum and maximum signal controls.
Where top and bottom are the normally allowed to float, but may be fixed at 100 or 0 respectively in a 3-parameter fit. The Hill Coefficient normally allowed to float but may also be fixed at 1 in a 3-parameter fit. I is the compound concentration.

| IC50 [nM] | Compound |
| --- | --- |
| 10700 | CNC(=O)c1cccc(CN2CC(NC(=O)c3cn(C4CC4)nn3)C2)c1 [compound 726, 1-cyclopropyl-N-(1-{[3-(methylcarbamoyl)phenyl]methyl}azetidin-3-yl)-1H-1,2,3-triazole-4-carboxamide] |
| 5400 | CNCCOc1cccc(C(C)N2CC(NC(=O)c3cn(C4CC4)nn3)C2)c1Cl (centres unmarked) [compound 975, N-(1-(1-(2-chloro-3-(2-(methylamino)ethoxy)phenyl)ethyl)azetidin-3-yl)-1-cyclopropyl-1H-1,2,3-triazole-4-carboxamide] |
| 10200 | O=C(NC1CN(Cc2ccc3c(c2)C(=O)NC3)C1)c1cn(C2CC2)nn1 [compound 765, 1-cyclopropyl-N-{1-[(3-oxo-2,3-dihydro-1H-isoindol-5-yl)methyl]azetidin-3-yl}-1H-1,2,3-triazole-4-carboxamide] |
| > 50000 | CC(NC(=O)c1cn(C2CC2)nn1)C1CCCCN1C (centres unmarked) [compound 979, 1-cyclopropyl-N-(1-(1-methylpiperidin-2-yl)ethyl)-1H-1,2,3-triazole-4-carboxamide] |
| 377 | C[C@@H](c1ccccc1)N1CC(NC(=O)c2cn(C3CC3)nn2)C1 [compound 709, 1-cyclopropyl-N-{1-[(1S)-1-phenylethyl]azetidin-3-yl}-1H-1,2,3-triazole-4-carboxamide] |
| 4210 | O=C(NC1CN(Cc2ccccc2)C1)c1cn(C2CC2)nn1 [compound 671, N-(1-benzylazetidin-3-yl)-1-cyclopropyl-1H-1,2,3-triazole-4-carboxamide] |
| 4410 | O=C(NC1CN(C2CCc3cc(Cl)ccc32)C1)c1cn(C2CC2)nn1 (centres unmarked) [compound 719, N-[1-(5-chloro-2,3-dihydro-1H-inden-1-yl)azetidin-3-yl]-1-cyclopropyl-1H-1,2,3-triazole-4-carboxamide] |
| 780 | CC(c1ccc(OCCc2ccccc2)cc1)N1CC(NC(=O)c2cn(C3CC3)nn2)C1 (centres unmarked) [compound 960, 1-cyclopropyl-N-(1-(1-(4-phenethoxyphenyl)ethyl)azetidin-3-yl)-1H-1,2,3-triazole-4-carboxamide] |
| 965 | CNC(=O)c1ccc(COc2ccc(C(C)N3CC(NC(=O)c4cn(C5CC5)nn4)C3)cc2)cc1 (centres unmarked) [compound 854, 1-cyclopropyl-N-{1-[1-(4-{[4-(methylcarbamoyl)phenyl]methoxy}phenyl)ethyl]azetidin-3-yl}-1H-1,2,3-triazole-4-carboxamide] |
| 970 | O=C(NC1CN(Cc2cnn(CCc3ccccc3)c2)C1)c1cn(C2CC2)nn1 [compound 806, 1-cyclopropyl-N-(1-{[1-(2-phenylethyl)-1H-pyrazol-4-yl]methyl}azetidin-3-yl)-1H-1,2,3-triazole-4-carboxamide] |
| 3040 | CC(c1cccc(Oc2ccccc2)c1)N1CC(NC(=O)c2cn(C3CC3)nn2)C1 (centres unmarked) [compound 730, 1-cyclopropyl-N-{1-[1-(3-phenoxyphenyl)ethyl]azetidin-3-yl}-1H-1,2,3-triazole-4-carboxamide] |
| 576 | CC(c1ccc2c(c1)OCCO2)N1CC(NC(=O)c2cn(C3CC3)nn2)C1 (centres unmarked) [compound 767, 1-cyclopropyl-N-{1-[1-(2,3-dihydro-1,4-benzodioxin-6-yl)ethyl]azetidin-3-yl}-1H-1,2,3-triazole-4-carboxamide] |
| 7780 | CC(c1cc(F)ccc1F)N1CC(NC(=O)c2cn(C3CC3)nn2)C1 (centres unmarked) [compound 746, 1-cyclopropyl-N-{1-[1-(2,5-difluorophenyl)ethyl]azetidin-3-yl}-1H-1,2,3-triazole-4-carboxamide] |
| 3690 | COc1ccc(C(C)N2CC(NC(=O)c3cn(C4CC4)nn3)C2)cc1OC (centres unmarked) [compound 698, 1-cyclopropyl-N-{1-[1-(3,4-dimethoxyphenyl)ethyl]azetidin-3-yl}-1H-1,2,3-triazole-4-carboxamide] |
| 5620 | COc1nn(C)cc1CN1CC(NC(=O)c2cn(C3CC3)nn2)C1 [compound 777, 1-cyclopropyl-N-{1-[(3-methoxy-1-methyl-1H-pyrazol-4-yl)methyl]azetidin-3-yl}-1H-1,2,3-triazole-4-carboxamide] |
| 8030 | COCCOc1cccc(CN2CC(NC(=O)c3cn(C4CC4)nn3)C2)c1 [compound 701, 1-cyclopropyl-N-(1-{[3-(2-methoxyethoxy)phenyl]methyl}azetidin-3-yl)-1H-1,2,3-triazole-4-carboxamide] |
| > 50000 | CC(NC(=O)c1cc(C2CC2)cnn1)C1CCCCN1C (centres unmarked) [compound 981, 5-cyclopropyl-N-(1-(1-methylpiperidin-2-yl)ethyl)pyridazine-3-carboxamide] |
| 30500 | O=C(NC1CN(C2(c3ccccc3)CC2)C1)c1cn(C2CC2)nn1 [compound 755, 1-cyclopropyl-N-[1-(1-phenylcyclopropyl)azetidin-3-yl]-1H-1,2,3-triazole-4-carboxamide] |

| IC50 [nM] | Compound |
| --- | --- |
| 169 | COc1cccc(Cn2cc(CN3CC(NC(=O)c4cn(C5CC5)nn4)C3)cn2)c1 [compound 982, 1-cyclopropyl-N-(1-((1-(3-methoxybenzyl)-1H-pyrazol-4-yl)methyl)azetidin-3-yl)-1H-1,2,3-triazole-4-carboxamide] |
| 2950 | Cc1nc(C)c(C(C)N2CC(NC(=O)c3cn(C4CC4)nn3)C2)s1 (centres unmarked) [compound 718, 1-cyclopropyl-N-{1-[1-(dimethyl-1,3-thiazol-5-yl)ethyl]azetidin-3-yl}-1H-1,2,3-triazole-4-carboxamide] |
| 1020 | COc1cccnc1C(C)N1CC(NC(=O)c2cn(C3CC3)nn2)C1 (centres unmarked) [compound 725, 1-cyclopropyl-N-{1-[1-(3-methoxypyridin-2-yl)ethyl]azetidin-3-yl}-1H-1,2,3-triazole-4-carboxamide] |
| 30700 | CC(c1nccs1)N1CC(NC(=O)c2cn(C3CC3)nn2)C1 (centres unmarked) [compound 716, 1-cyclopropyl-N-{1-[1-(1,3-thiazol-2-yl)ethyl]azetidin-3-yl}-1H-1,2,3-triazole-4-carboxamide] |
| 5400 | CC(c1ccc(=O)[nH]c1)N1CC(NC(=O)c2cn(C3CC3)nn2)C1 (centres unmarked) [compound 994, 1-cyclopropyl-N-(1-(1-(6-oxo-1,6-dihydropyridin-3-yl)ethyl)azetidin-3-yl)-1H-1,2,3-triazole-4-carboxamide] |
| 83.4 | O=C(NC1CN(Cc2ccc(OCc3ccccc3)cc2)C1)c1cn(C2CC2)nn1 [compound 802, N-(1-{[4-(benzyloxy)phenyl]methyl}azetidin-3-yl)-1-cyclopropyl-1H-1,2,3-triazole-4-carboxamide] |
| 7300 | NC(=O)c1cccc(CN2CC(NC(=O)c3cn(C4CC4)nn3)C2)c1 [compound 727, N-{1-[(3-carbamoylphenyl)methyl]azetidin-3-yl}-1-cyclopropyl-1H-1,2,3-triazole-4-carboxamide] |
| 26.5 | CC(c1ccc(OCc2ccccc2)cc1)N1CC(NC(=O)c2cc(C3CC3)cnn2)C1 (centres unmarked) [compound 836, N-(1-{1-[4-(benzyloxy)phenyl]ethyl}azetidin-3-yl)-5-cyclopropylpyridazine-3-carboxamide] |
| > 50000 | O=C(NC1CN(Cc2cnn(Cc3ccccc3)c2)C1)c1ncc(C2CC2)[nH]1 [compound 986, N-(1-((1-benzyl-1H-pyrazol-4-yl)methyl)azetidin-3-yl)-5-cyclopropyl-1H-imidazole-2-carboxamide] |
| 1.2 | O=C(NC1CN(Cc2cnn(Cc3ccc(Cl)cc3)c2)C1)c1cc(C2CC2)cnn1 [compound 929, N-(1-((1-(4-chlorobenzyl)-1H-pyrazol-4-yl)methyl)azetidin-3-yl)-5-cyclopropylpyridazine-3-carboxamide] |
| 1520 | O=C(NC1CN(C(c2ccccc2)C2CCC2)C1)c1cn(C2CC2)nn1 (centres unmarked) [compound 731, N-{1-[cyclobutyl(phenyl)methyl]azetidin-3-yl}-1-cyclopropyl-1H-1,2,3-triazole-4-carboxamide] |
| 565 | COc1ccc(C(N2CC(NC(=O)c3cn(C4CC4)nn3)C2)C(F)(F)F)cc1 (centres unmarked) [compound 749, 1-cyclopropyl-N-{1-[2,2,2-trifluoro-1-(4-methoxyphenyl)ethyl]azetidin-3-yl}-1H-1,2,3-triazole-4-carboxamide] |
| 1200 | CC(c1c(Cl)cccc1Cl)N1CC(NC(=O)c2cn(C3CC3)nn2)C1 (centres unmarked) [compound 769, 1-cyclopropyl-N-{1-[1-(2,6-dichlorophenyl)ethyl]azetidin-3-yl}-1H-1,2,3-triazole-4-carboxamide] |
| 2700 | O=C(NC1CN(Cc2ccc(OCc3ccccn3)cc2)C1)c1cn(C2CC2)nn1 [compound 992, 1-cyclopropyl-N-(1-(4-(pyridin-2-ylmethoxy)benzyl)azetidin-3-yl)-1H-1,2,3-triazole-4-carboxamide] |
| > 50000 | CS(=O)(=O)CC(c1ccccc1)N1CC(NC(=O)c2cn(C3CC3)nn2)C1 (centres unmarked) [compound 773, 1-cyclopropyl-N-[1-(2-methanesulfonyl-1-phenylethyl)azetidin-3-yl]-1H-1,2,3-triazole-4-carboxamide] |
| 2000 | O=C(NC1CN(CC2CC2)C1)c1cn(C2CC2)nn1 [compound 665, 1-cyclopropyl-N-[1-(cyclopropylmethyl)azetidin-3-yl]-1H-1,2,3-triazole-4-carboxamide] |
| 713 | CC(c1ccc(OCC(=O)N2CCOCC2)cc1)N1CC(NC(=O)c2cn(C3CC3)nn2)C1 (centres unmarked) [compound 829, 1-cyclopropyl-N-[1-(1-(4-[2-(morpholin-4-yl)-2-oxoethoxy]phenyl}ethyl)azetidin-3-yl]-1H-1,2,3-triazole-4-carboxamide] |
| 7.8 | O=C(NC1CN(Cc2cnn(Cc3ccccc3)c2)C1)c1cc(C2CC2)cnn1 [compound 933, N-(1-((1-benzyl-1H-pyrazol-4-yl)methyl)azetidin-3-yl)-5-cyclopropylpyridazine-3-carboxamide] |

| Compound | IC50 [nM] |
| --- | --- |
| CCCCOc1ccc(C(C)N2CC(NC(=O)c3cn(C4CC4)nn3)C2)cc1 (centres unmarked) [compound 681, N-{1-[1-(4-butoxyphenyl)ethyl]azetidin-3-yl}-1-cyclopropyl-1H-1,2,3-triazole-4-carboxamide] | 1290 |
| CN1[C@@H]2CC[C@H]1C[C@H](NC(=O)c1cc(C3CC3)cnn1)C2 [compound 1023, 5-cyclopropyl-N-((1R,3s,5S)-8-methyl-8-azabicyclo[3.2.1]octan-3-yl)pyridazine-3-carboxamide] | 6300 |
